{"source": "patent US20240043401A1", "about": "“SALT FORM OF TETRA-SUBSTITUTED OLEFIN COMPOUND, CRYSTAL, AND PREPARATION METHOD THEREFOR” (CHIA TAI TIANQING PHARMACEUTICAL GROUP CO., LTD., priority 2020, published 2024)", "key": {"[1]": {"assay": "Solubility of crystalline forms (supersaturated suspension shaken at 37° C. for 24 h, HPLC-UV)", "type": "physicochemical", "conditions": "thermodynamic from solid, 800 rpm", "method": "1-2 mg of a test sample was taken and placed in a semi-automatic filter vial, and 450 μL of purified water or FeSSIF simulated fluid (fed state simulated intestinal fluid) was added to give a supersaturated suspension. The sample was vortexed for at least 2 min. The vial was placed on a plate shaker and shaken at 37° C. at 800 rpm for 24 h. After centrifugal filtration, the sample was subjected to HPLC-UV linear quantitative analysis for concentration.\nFeSSIF (fed state simulated intestinal fluid): an aqueous buffer solution comprising 0.282% (w/v) lecithin, 0.806% (w/v) sodium taurocholate, 0.865% (w/v) acetic acid, 1.52% (w/v) potassium chloride, with a pH of […]"}, "[2]": {"assay": "Dynamic vapor sorption (DVS) hygroscopicity", "type": "physicochemical", "conditions": "from the DVS patterns, 25° C.", "method": "1.4. Dynamic Vapor Sorption (DVS) Method of the Present Application\nInstrument model: DVS Intrinsic instrument from SMS (Surface Measurement Systems) Inc.\nTemperature: 25° C.; sample amount: 10-30 mg; protective gas and flow: N2, 200 mL/min; dm/dt: 0.002%/min; minimum dm/dt equilibration time: 10 min; maximum equilibration time: 180 min; RH range: 0% RH-95% RH-0% RH; RH gradient: 10% (90% RH-0% RH-90% RH), 5% (95% RH-90% RH and 90% RH-95% RH)."}, "[3]": {"assay": "In vivo pharmacokinetic study after a single oral dose", "conditions": "dog; female beagle dogs, single oral dose 100 mg/kg at 1 h after feeding, plasma, mean", "method": "This experiment was intended to evaluate the pharmacokinetic behavior of the compound after a single intragastric administration and to investigate bioavailability after intragastric administration. Two female beagle dogs were each given a single oral dose of the crystalline form I of the compound of formula (II) at 100 mg/kg at 1 h after feeding, and plasma samples were taken at 0.0833 (5 min), 0.25 (15 min), 0.5 (30 min), 1, 2, 4, 6, 8, 12, and 24 h after administration and assayed for the concentration of the test substance by LC-MS/MS."}, "[4]": {"assay": "Forced degradation experiment", "type": "physicochemical", "method": "Control group: 20 mg of a sample was weighed out, a proper amount of diluent (acetonitrile:water=1:1, v/v) was added to dissolve the sample, and then the solution was brought to a volume of 100 mL with the diluent (acetonitrile:water=1:1, v/v). A proper amount of the solution was taken for analysis. Acidic degradation: 20 mg of the sample was weighed out, and 1 mL of a 1 M aqueous HCl solution was added. After sitting at room temperature for 24 h, the mixture was neutralized with 1 mL of a 1 M aqueous NaOH solution. The solution was brought to a volume of 100 mL with the diluent (acetonitrile:water=1:1, v/v). A proper amount of the solution was taken for analysis. Basic degradation: 20 mg of the sample was weighed out, and 1 mL of a 1 M aqueous NaOH solution was added. After sitting at room temperature for 24 h, the mixture was neutralized with 1 mL of a 1 M aqueous HCl solution. The solution was brought to a volume of 100 mL with the diluent (acetonitrile:water=1:1, v/v). A proper amount of the solution was taken for analysis. Oxidative degradation: 20 mg of the sample was weighed out, 1 mL of a 3% aqueous hydrogen peroxide solution was added, and the mixture was left at room temperature for 24 h. The solution was brought to a volume of 100 mL with the diluent (acetonitrile:water=1:1, v/v). A proper amount of the solution was taken for analysis."}, "[5]": {"conditions": "oral administration; cited from earlier work"}, "breast cancer patients": {"tested_on": "breast cancer patients", "conditions": "intramuscular injection; cited from earlier work"}, "[6]": {"conditions": "Vehicle: FeSSIF (fed state simulated intestinal fluid)"}}, "data": [{"smiles": "CC/C(=C(/c1ccc(OCCNC/C=C/C(=O)N(C)C)nc1)c1[nH]c2ccccc2c1Cl)c1ccccc1.Cl", "note": "[listing 1 of 2 here]", "values": [{"measurement": "solubility at 24 h", "setting": "[1]; purified water, Vehicle: Water", "result": 237, "unit": "µg/mL"}, {"measurement": "solubility at 24 h", "setting": "[1]; [6]", "result": 1900, "unit": "µg/mL"}, {"measurement": "Hygroscopicity", "setting": "[2]", "result": "lower hygroscopicity than the amorphous form"}, {"measurement": "AUC(0-t)", "setting": "[3]", "result": 229, "unit": "µM·h"}, {"measurement": "Cmax", "setting": "[3]", "result": 14, "unit": "µM"}, {"measurement": "Tmax", "setting": "[3]", "result": 6, "unit": "h"}, {"measurement": "half-life", "setting": "[3]", "result": 14.9, "unit": "h"}, {"measurement": "Total impurities", "setting": "[4]; Acidic degradation: 1 M aqueous HCl, room temperature, 24 h, listed as crystalline form I of the compound of formula (II)", "result": 0.34, "unit": "%"}, {"measurement": "Total impurities", "setting": "[4]; Basic degradation: 1 M aqueous NaOH, room temperature, 24 h, listed as crystalline form I of the compound of formula (II)", "result": 0.35, "unit": "%"}, {"measurement": "Total impurities", "setting": "[4]; Not degraded (control group, dissolved in acetonitrile:water 1:1), listed as crystalline form I of the compound of formula (II)", "result": 0.34, "unit": "%"}, {"measurement": "Total impurities", "setting": "[4]; Oxidative degradation: 3% aqueous hydrogen peroxide, room temperature, 24 h, listed as crystalline form I of the compound of formula (II)", "result": 0.92, "unit": "%"}]}, {"smiles": "CC/C(=C(/c1ccc(OCCNC/C=C/C(=O)N(C)C)nc1)c1[nH]c2ccccc2c1Cl)c1ccccc1.O=C(O)/C=C/C(=O)O", "values": [{"measurement": "solubility at 24 h", "setting": "[1]; [6]", "result": 1950, "unit": "µg/mL"}]}, {"smiles": "CC/C(=C(/c1ccc(OCCNC/C=C/C(=O)N(C)C)nc1)c1[nH]c2ccccc2c1Cl)c1ccccc1", "values": [{"measurement": "solubility at 24 h", "setting": "[1]; purified water, Vehicle: Water", "result": "< 0.8", "unit": "µg/mL"}, {"measurement": "solubility at 24 h", "setting": "[1]; [6]", "result": 316, "unit": "µg/mL"}]}, {"smiles": "Br.CC/C(=C(/c1ccc(OCCNC/C=C/C(=O)N(C)C)nc1)c1[nH]c2ccccc2c1Cl)c1ccccc1", "values": [{"measurement": "solubility at 24 h", "setting": "[1]; [6]", "result": 1370, "unit": "µg/mL"}]}, {"smiles": "CC/C(=C(/c1ccc(OCCNC/C=C/C(=O)N(C)C)nc1)c1[nH]c2ccccc2c1Cl)c1ccccc1.Cl", "note": "[listing 2 of 2 here]", "values": [{"measurement": "Total impurities", "setting": "[4]; Acidic degradation: 1 M aqueous HCl, room temperature, 24 h", "result": 0.56, "unit": "%"}, {"measurement": "Total impurities", "setting": "[4]; Basic degradation: 1 M aqueous NaOH, room temperature, 24 h", "result": 0.54, "unit": "%"}, {"measurement": "Total impurities", "setting": "[4]; Not degraded (control group, dissolved in acetonitrile:water 1:1)", "result": 0.60, "unit": "%"}, {"measurement": "Total impurities", "setting": "[4]; Oxidative degradation: 3% aqueous hydrogen peroxide, room temperature, 24 h", "result": 3.5, "unit": "%"}]}, {"smiles": "C[C@]12CC[C@@H]3c4ccc(O)cc4C[C@@H](CCCCCCCCC[S+]([O-])CCCC(F)(F)C(F)(F)F)[C@H]3[C@@H]1CC[C@@H]2O", "note": "(stereo partly drawn) [fulvestrant]", "values": [{"measurement": "Bioavailability", "setting": "[5]", "result": "zero"}, {"measurement": "Clinical response rate", "setting": "breast cancer patients", "result": "about 50%"}]}]}
